Data on 22 compounds can be found in US10125123B2, “Small molecule IRE1-α inhibitors” (Cornell University, priority 2016, dated 2018).

Where only a bound is given, the exact number is not on record here.

T1 sequence (O75460 19-977): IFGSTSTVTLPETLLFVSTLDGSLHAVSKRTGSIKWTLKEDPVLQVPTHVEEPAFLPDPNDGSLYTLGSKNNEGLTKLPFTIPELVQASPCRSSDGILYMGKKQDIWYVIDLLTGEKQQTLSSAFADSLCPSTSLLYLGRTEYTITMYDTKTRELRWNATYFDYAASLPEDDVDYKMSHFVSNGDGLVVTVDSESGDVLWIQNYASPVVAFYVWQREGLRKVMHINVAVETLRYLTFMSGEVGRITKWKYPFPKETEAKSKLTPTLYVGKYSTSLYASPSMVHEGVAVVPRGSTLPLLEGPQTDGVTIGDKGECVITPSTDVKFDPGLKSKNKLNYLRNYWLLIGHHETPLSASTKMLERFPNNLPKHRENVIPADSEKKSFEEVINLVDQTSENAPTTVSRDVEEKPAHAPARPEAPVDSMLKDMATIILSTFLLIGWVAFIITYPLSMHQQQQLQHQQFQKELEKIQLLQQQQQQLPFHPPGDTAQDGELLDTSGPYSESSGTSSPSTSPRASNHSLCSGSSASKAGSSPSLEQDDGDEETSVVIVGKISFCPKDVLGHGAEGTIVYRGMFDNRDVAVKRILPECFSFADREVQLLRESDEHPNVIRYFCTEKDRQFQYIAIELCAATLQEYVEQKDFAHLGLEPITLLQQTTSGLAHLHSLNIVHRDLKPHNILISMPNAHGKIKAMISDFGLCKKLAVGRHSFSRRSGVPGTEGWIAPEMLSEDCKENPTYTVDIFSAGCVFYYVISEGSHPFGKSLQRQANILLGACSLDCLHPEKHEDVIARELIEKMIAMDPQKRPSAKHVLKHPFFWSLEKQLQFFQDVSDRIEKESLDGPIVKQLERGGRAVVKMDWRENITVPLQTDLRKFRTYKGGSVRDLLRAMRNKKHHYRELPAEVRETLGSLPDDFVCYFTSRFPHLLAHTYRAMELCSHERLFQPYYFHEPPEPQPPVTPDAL

This assay concerns the target T1, IRE1α (Homo sapiens, UniProt O75460).
T1 construct: purchased SignalChem
The assay is described as follows: In vitro FRET assay (XBP1 RNA probe cleavage by IRE1α). Conditions: biochemical FRET assay, 2 nM IRE1α. As to the method:
In vitro FRET assay was performed to evaluate the ability of select compounds to inhibit IRE1, the results of which are summarized in the following table.
To perform the in vitro FRET assay, 1× complete assay buffer (CAB; […], 50 mM sodium citrate pH 7.15, 1 mM magnesium acetate, 0.02% Tween 20) was used to dilute SignalChem IRE1α in protein to a final concentration of 2 nM. Selected compounds were serially diluted with DMSO in a non-binding black 384-well plate for a total of 15 μl in each well. 2 μl of the serially diluted compound or DMSO control were then added to new wells containing 98 μl of 1×CAB, for a total volume of 100 μl, 10 μl of which were then transferred to wells of a new plate. 5 μl of the diluted IRE1α was then added to each well. 5 μl of a […] XBP1 RNA probe was then added to each well. Fluorescence was then read over 30 minutes in kinetic mode (485/515 nm). Two RNA probes were used, XBP1 wildtype (CAUGUCCGCAGCACAUG; SEQ ID NO: 1) which is able to be spliced by active IRE1α or XBP1 mutant (CAUGUCCCCAGCACAUG; SEQ ID NO: 2) which is unable to be spliced. Each probe contained a 5′ 6-FAM modification and a 3′ IOWA Black FQ modification. […]
With `CN1CCN(Cc2ccc(NC(=O)Nc3cc(-c4ccc5nc(N)nc(N)c5c4)n(C)n3)cc2C(F)(F)F)CC1` [Compound 29, 1-(5-(2,4-diaminoquinazolin-6-yl)-1-methyl-1H-pyrazol-3-yl)-3-(4-((4-methylpiperazin-1-yl)methyl)-3-(trifluoromethyl)phenyl)urea], the EC50 was at most 5 µM.
For `CN1CCC(Cc2ccc(NC(=O)Cc3cc(-c4ccc5nc(N)ncc5c4)n(C)n3)cc2C(F)(F)F)CC1` [Compound 49, 2-(5-(2-aminoquinazolin-6-yl)-1-methyl-1H-pyrazol-3-yl)-N-(4-((1-methylpiperidin-4-yl)methyl)-3-(trifluoromethyl)phenyl)acetamide] the value was over 100 µM.
Then `Cn1nc(NC(=O)Nc2ccc(CN3CCC(O)CC3)c(C(F)(F)F)c2)cc1-c1ccc2ccncc2c1` [Compound 41, 1-(4-((4-hydroxypiperidin-1-yl)methyl)-3-(trifluoromethyl)phenyl)-3-(5-(isoquinolin-7-yl)-1-methyl-1H-pyrazol-3-yl)urea], with over 100 µM.
`CN1CCN(Cc2ccc(NC(=O)Cc3cc(-c4ccc5cc(N)ncc5c4)n(C)n3)cc2C(F)(F)F)CC1` [Compound 32, 2-(5-(3-aminoisoquinolin-7-yl)-1-methyl-1H-pyrazol-3-yl)-N-(4-((4-methylpiperazin-1-yl)methyl)-3-(trifluoromethyl)phenyl)acetamide] returned an EC50 of over 100 µM.
Then `CNS(=O)(=O)c1ccc(NC(=O)Nc2cc(-c3ccc4ccncc4c3)n(C)n2)cc1` [Compound 70, 4-(3-(5-(isoquinolin-7-yl)-1-methyl-1H-pyrazol-3-yl)ureido)-N-methylbenzenesulfonamide], with over 100 µM.
Then `Cn1nc(Nc2c(NC3CCCC3)c(=O)c2=O)cc1-c1ccc2nc(N)ncc2c1` [Compound 76, 3-((5-(2-aminoquinazolin-6-yl)-1-methyl-1H-pyrazol-3-yl)amino)-4-(cyclopentylamino)cyclobut-3-ene-1,2-dione], with 50 to 100 µM; and `Cn1nc(NC(=O)Nc2ccc(CN3CCC(c4ccccc4)CC3)c(C(F)(F)F)c2)cc1-c1ccc2ccncc2c1` [Compound 40, 1-(5-(isoquinolin-7-yl)-1-methyl-1H-pyrazol-3-yl)-3-(4-((4-phenylpiperidin-1-yl)methyl)-3-(trifluoromethyl)phenyl)urea], with over 100 µM.
`Cn1nc(NC(=O)Nc2ccccc2F)cc1-c1ccc2ccncc2c1` [Compound 69, 1-(2-fluorophenyl)-3-(5-(isoquinolin-7-yl)-1-methyl-1H-pyrazol-3-yl)urea]: the EC50 was over 100 µM.
For `CN1CCN(Cc2ccc(NC(=O)Nc3cc(-c4ccc5ccc(O)nc5c4)n(C)n3)cc2C(F)(F)F)CC1` [Compound 23, 1-(5-(2-hydroxyquinolin-7-yl)-1-methyl-1H-pyrazol-3-y1)-3-(4-((4-methylpiperazin-1-yl)methyl)-3-(trifluoromethyl)phenyl)urea] the value was 5 to 50 µM.
Then `O=C(Nc1cccc(C(F)(F)F)c1)Nc1ccc2oc(-c3cccnc3)nc2c1` [Compound 57, 1-(2-(pyridin-3-yl)benzo[d]oxazol-5-yl)-3-(3-(trifluoromethyl)phenyl)urea], with 5 to 50 µM; and `Cn1nc(NC(=O)Nc2ccc(CN3CCCCCC3)c(C(F)(F)F)c2)cc1-c1ccc2ccncc2c1` [Compound 38, 1-(4-(azepan-1-ylmethyl)-3-(trifluoromethyl)phenyl)-3-(5-(isoquinolin-7-yl)-1-methyl-1H-pyrazol-3-yl)urea], with over 100 µM.
Then `CN1CCN(Cc2ccc(Nc3c(Nc4cc(-c5ccc6nc(N)ncc6c5)n(C)n4)c(=O)c3=O)cc2C(F)(F)F)CC1` [Compound 75, 3-((5-(2-aminoquinazolin-6-yl)-1-methyl-1H-pyrazol-3-yl)amino)-4-((4-((4-methylpiperazin-1-yl)methyl)-3-(trifluoromethyl)phenyl)amino) cyclobut-3-ene-1,2-dione], with at most 5 µM; and `CN1CCN(Cc2ccc(NC(=O)Nc3nc(-c4ccc5ccncc5c4)n(C)n3)cc2C(F)(F)F)CC1` [Compound 34, 1-(5-(isoquinolin-7-yl)-1-methyl-1H-1,2,4-triazol-3-yl)-3-(4-((4-methylpiperazin-1-yl)methyl)-3-(trifluoromethyl)phenyl)urea], with 5 to 50 µM; and `CN1CCN(Cc2ccc(NC(=O)Nc3cc(-c4ccc5nc(N)nc(O)c5c4)n(C)n3)cc2C(F)(F)F)CC1` [Compound 27, 1-(5-(2-amino-4-hydroxyquinazolin-6-yl)-1-methyl-1H-pyrazol-3-yl)-3-(4-((4-methylpiperazin-1-yl)methyl)-3-(trifluoromethyl)phenyl)urea], with at most 5 µM.
`Cn1nc(NS(=O)(=O)c2ccccc2)cc1-c1ccc2cc(N)ncc2c1` [Compound 66, N-(5-(3-aminoisoquinolin-7-yl)-1-methyl-1H-pyrazol-3-yl)benzenesulfonamide] returned an EC50 of over 100 µM.
`CN1CCN(Cc2ccc(NC(=O)Cc3cc(-c4ccc5ccncc5c4)n(C)n3)cc2C(F)(F)F)CC1` [Compound 31, 2-(5-(isoquinolin-7-yl)-1-methyl-1H-pyrazol-3-yl)-N-(4-((4-methylpiperazin-1-yl)methyl)-3-(trifluoromethyl)phenyl)acetamide] had an EC50 of 5 to 50 µM.
Then `CN1CCN(Cc2ccc(NC(=O)Nc3ccc4oc(-c5cnn6ccccc56)nc4c3)cc2C(F)(F)F)CC1` [Compound 16, 1-(4-((4-methylpiperazin-1-yl)methyl)-3-(trifluoromethyl)phenyl)-3-(2-(pyrazolo[1,5-a]pyridin-3-yl)benzo[d]oxazol-5-yl)urea], with at most 5 µM; and `CN1CCN(Cc2ccc(NC(=O)Nc3cc(-c4ccc5ccncc5c4)n(C)n3)c(-c3cnn(C)c3)c2)CC1` [Compound 21, 1-(5-(isoquinolin-7-yl)-1-methyl-1H-pyrazol-3-yl)-3-(2-(1-methyl-1H-pyrazol-4-yl)-4-((4-methylpiperazin-1-yl)methyl)phenyl)urea], with 50 to 100 µM; and `CN1CCN(Cc2ccc(CC(=O)Nc3cc(-c4ccc5cc(N)ncc5c4)n(C)n3)cc2C(F)(F)F)CC1` [Compound 51, N-(5-(3-aminoisoquinolin-7-yl)-1-methyl-1H-pyrazol-3-yl)-2-(4-((4-methylpiperazin-1-yl)methyl)-3-(trifluoromethyl)phenyl)acetamide], with 5 to 50 µM.
Then `CN1CCC(Cc2ccc(NC(=O)Nc3cc(-c4ccc5cc(N)ncc5c4)n(C)n3)cc2C(F)(F)F)CC1` [Compound 48, 1-(5-(3-aminoisoquinolin-7-yl)-1-methyl-1H-pyrazol-3-yl)-3-(4-((1-methylpiperidin-4-yl)methyl)-3-(trifluoromethyl)phenyl)urea], with 5 to 50 µM; and `CN1CCN(Cc2ccc(NC(=O)Nc3cc(-c4cnc5ccccc5c4)n(C)n3)cc2C(F)(F)F)CC1` [Compound 25, 1-(1-methyl-5-(quinolin-3-yl)-1H-pyrazol-3-yl)-3-(4-((4-methylpiperazin-1-yl)methyl)-3-(trifluoromethyl)phenyl)urea], with 5 to 50 µM; and `CN1CCN(Cc2ccc(NC(=O)Nc3nn(C)c4cc(-c5cnc(N)nc5)ccc34)cc2C(F)(F)F)CC1` [Compound 9, 1-(6-(2-aminopyrimidin-5-yl)-1-methyl-1H-indazol-3-yl)-3-(4-((4-methylpiperazin-1-yl)methyl)-3-(trifluoromethyl)phenyl)urea], with at most 5 µM.
